103 compounds from PubChem BioAssay AID1996 can be followed below.

One may read the kinetic solubility as solubility judged after dilution from a stock solution rather than from solid.

Values after ≈ are worked out from the molar mass of the structure shown.

The conditions of the series: buffer; pH 7.4; 200.0 µM.
For `O=C(CCc1ccccc1O)NC1CCCc2ccccc21` (stereo not drawn), the kinetic solubility is over 44.3 µg/mL.
`O=C(/C=C/c1ccccc1)Nc1cccc(S(=O)(=O)Nc2ccccc2F)c1` came in with a kinetic solubility of 1 µg/mL (≈ 2.52 µM).
The result for `CC(=O)c1ccc(NC(=S)N2CCCCCC2)cc1` reads over 41.5 µg/mL; that for `CS(=O)(=O)c1ccc(C(=O)OCC(=O)NC(=O)C2COc3ccccc3O2)cc1[N+](=O)[O-]` (stereo not drawn), 39.2 µg/mL (≈ 84.4 µM).
In the case of `O=C(CCSCc1ccccc1)Nc1ccc2c(c1)OCCO2` it was 33.8 µg/mL (≈ 103 µM).
The result for `NC(=O)c1ccsc1NC(=O)CN1C(=O)NC2(CCCC2)C1=O` reads over 50.5 µg/mL; that for `CCc1ccc(OCC(=O)O/N=C(\N)c2ccccn2)cc1`, 37.9 µg/mL (≈ 127 µM).
As for `O=S(=O)(/N=C(/Nc1nccs1)c1ccc(F)cc1)c1ccccc1`, the kinetic solubility came out at 5 µg/mL (≈ 13.8 µM).
In the case of `Fc1ccc(CNc2ccccn2)cc1`, the kinetic solubility stood at 24.3 µg/mL (≈ 120 µM).
In the case of `Cc1cc2nc(/C(C#N)=C/c3ccncc3)[nH]c2cc1C` it was 1.7 µg/mL (≈ 6.2 µM); in that of `Cc1cc(C(=O)NCC2CCCO2)sc1C` (stereo not drawn), over 35.9 µg/mL.
In the case of `COc1cc(OC)c(N(C)S(=O)(=O)c2cccc(C(=O)OCC(=O)N3CCOCC3)c2)cc1Cl` it was 56.6 µg/mL (≈ 110 µM); in that of `COCc1cc(C)nc(SCc2ccccc2Cl)c1C#N`, 0.3 µg/mL (≈ 0.941 µM); in that of `COc1ccc(-c2ncnc(C(F)(F)F)c2-c2csc(C)n2)c(O)c1`, 53.1 µg/mL (≈ 145 µM).
In turn, `O=C(O)c1cccnc1SC1CC(=O)N(c2ccccc2)C1=O` (stereo not drawn) returned a kinetic solubility of over 49.3 µg/mL.
In the case of `O=S(=O)(c1ccc(Cl)nc1)N1CCOCC1` it was over 39.4 µg/mL; in that of `Cc1ccc(CN2CC(C(=O)N(C)CC(=O)Nc3cccc(F)c3)CC2=O)cc1` (stereo not drawn), 46.2 µg/mL (≈ 116 µM); in that of `Cc1ccc(NC(=O)CN(C)C(=O)Cc2c[nH]c3ccccc23)cc1`, over 50.3 µg/mL.
Compound `O=C(NCCC1=CCCCC1)c1cc(-c2ccncc2)nc2ccccc12` returned a kinetic solubility of 1.2 µg/mL (≈ 3.36 µM).
In the case of `Cc1ccc(C)c(N2CN(CCC3=CCCCC3)CNC2=S)c1` it was 38.7 µg/mL (≈ 117 µM).
In the case of `CN(Cc1cccnc1)C(=O)CCCc1c[nH]c2ccccc12` it was 44.5 µg/mL (≈ 145 µM); in that of `Cc1ccccc1OCC(=O)NCCCNC(=O)c1cccnc1`, over 49.1 µg/mL; in that of `COc1ccccc1N1C(N)=NC(N)=NC12CCCCC2.Cl`, over 48.6 µg/mL.
In the case of `CCCN(Cc1ccccc1)C(=S)Nc1ccc(F)cc1` it was 39.2 µg/mL (≈ 130 µM); in that of `COc1ccc(N2C(=O)CC(C)(C)CC2=O)cc1OC`, over 41.6 µg/mL; in that of `O=C(Nc1nc2ccccc2s1)c1ccccc1`, 3.1 µg/mL (≈ 12.2 µM).
As for `Cc1onc(-c2c(Cl)cccc2Cl)c1C(O)c1ccc(F)cc1` (stereo not drawn), the solubility (kinetic) was determined as 42.1 µg/mL (≈ 120 µM).
In the case of `Cc1cc(C)c2c(N)c(C(=O)c3ccccc3)sc2n1` it was under 0.3 µg/mL; in that of `Nc1cc(-c2ccncc2)c[nH]c1=O`, over 28.1 µg/mL.
The compound `CN(C)c1ccc(NC(=O)c2cnsn2)cc1` showed a solubility (kinetic) of 30.2 µg/mL (≈ 122 µM).
In the case of `COc1ccccc1NC(=S)NC(C)C(c1cccs1)N1CCOCC1` (stereo not drawn) it was over 58.7 µg/mL; in that of `O=C(CCCc1cccs1)Nc1ccc2c(c1)OCO2`, 39.2 µg/mL (≈ 135 µM).
In the case of `O=C(CNC(=O)c1ccc(Br)o1)Nc1ccccc1` it was 6.7 µg/mL (≈ 20.7 µM); in that of `O=C(O)c1cc(-c2ccc(Br)s2)nc2ccccc12`, over 50.1 µg/mL; in that of `Cc1cccc(N2CCN(C(=O)c3oc4ccc(Br)cc4c3C)CC2)c1C`, 4.3 µg/mL (≈ 10.1 µM).
Regarding `Cc1ccc(N2C(=O)C3ON(c4ccccc4)C(CC(C)C)C3C2=O)cc1` (stereo not drawn), the solubility (kinetic) turned out to be 11.6 µg/mL (≈ 31.8 µM). Against the preceding compound, the solubility kinetic is about 2.7-fold higher.
In the case of `Cc1ccccc1-n1cc[nH]c1=S` it was over 28.5 µg/mL; in that of `CCCOc1ccc(CNC(=O)Cc2cccs2)cc1`, 19.9 µg/mL (≈ 68.8 µM); in that of `CC(Oc1ccc(C#N)cc1)C(=O)c1ccc(F)c(F)c1` (stereo not drawn), 32.6 µg/mL (≈ 113 µM).
The compound `O=C(O)CC/C(=N/NC(=O)CNC(=O)Cc1ccccc1)c1ccccc1` yielded a kinetic solubility of over 55.1 µg/mL.
The result for `COC(=O)c1sccc1NC(=S)N(C)C1CCCCC1` reads 0.4 µg/mL (≈ 1.28 µM).
The result for `O=C(COc1cccc(Br)c1)Nc1ccc(Cl)c(S(=O)(=O)N2CCOCC2)c1` reads 4.1 µg/mL (≈ 8.37 µM); that for `O=C(COC(=O)c1cccnc1Cl)NC12CC3CC(CC(C3)C1)C2`, 50.1 µg/mL (≈ 144 µM); that for `CC(C)(C)N=C(NS(=O)(=O)c1cccs1)c1ccccc1`, over 48.4 µg/mL.
The result for `O=C1c2ccccc2C(=O)N1CCCn1ccnc1` reads over 38.3 µg/mL; that for `CCOC(=O)c1cc2ccccc2n1CC(=O)c1ccccc1`, under 0.7 µg/mL; that for `O=C(COC(=O)C1CCC1)NCCc1ccc(Cl)cc1Cl`, over 49.5 µg/mL.
With `Cn1cc(S(=O)(=O)NCc2ccc3c(c2)OCO3)c(C(F)(F)F)n1`, the kinetic solubility was over 54.5 µg/mL.
In the case of `O=C(Nc1cccc(S(=O)(=O)NC2=NCCC2)c1)c1ccc(C(F)(F)F)cc1` it was 7.3 µg/mL (≈ 17.7 µM).
In the case of `CCCn1c(=N)n(CC(O)COc2ccc(C)cc2)c2ccccc21.Cl` (stereo not drawn) it was over 56.4 µg/mL; in that of `Cc1ccc2nc(/C(C#N)=C/c3ccccc3C(=O)O)[nH]c2c1`, over 45.5 µg/mL; in that of `Cc1cc(C)nc(S/C=C/C(=O)c2ccc(F)cc2)n1`, under 0.3 µg/mL.
The result for `CC1CN(Cc2cc(=O)oc3cc(O)ccc23)CC(C)O1` (stereo not drawn) reads over 43.4 µg/mL.
Take `CC(NC(=O)c1ccccc1Br)C1CC2CCC1C2` (stereo not drawn): the solubility (kinetic) was found to be 20.6 µg/mL (≈ 63.9 µM).
`O=C(O)c1c2c(nc3ccccc13)/C(=C/c1cccc([N+](=O)[O-])c1)CCC2` returned a kinetic solubility of over 54.1 µg/mL.
The result for `CN(C)/C=C/C(=O)c1ccc(Br)s1` reads over 39 µg/mL.
The result for `O=C1CCC(=O)N1CC(=O)N1CCCc2ccccc21` reads 28.5 µg/mL (≈ 105 µM).
In the case of `CC(=O)c1cccc(NC(=S)NCCc2ccc(Cl)cc2)c1` it was 4.1 µg/mL (≈ 12.3 µM); in that of `Cc1ccc(NC(=O)C2Cc3ccccc3C(=O)O2)cc1` (stereo not drawn), 4.7 µg/mL (≈ 16.7 µM).
In turn, `Cc1[nH]n(-c2ccccc2)c(=O)c1C=NCC1CCCO1` (stereo not drawn) showed a solubility (kinetic) of over 42.8 µg/mL.
In the case of `Cc1cc(/C=C2\SC(=S)N(C)C2=O)c(C)n1-c1cccc(O)c1`, the solubility (kinetic) stood at 0.4 µg/mL (≈ 1.16 µM).
The compound `CC(=O)c1ccc(S(=O)(=O)N2CCN(CCOc3ccccc3)CC2)cc1` returned a kinetic solubility of 53.6 µg/mL (≈ 138 µM).
The result for `Cc1c(C(=O)N2CCC2)oc2ccc(Br)cc12` reads 19.5 µg/mL (≈ 66.3 µM); that for `O=C1c2ccccc2C(O)(c2ccccc2)N1C1CC1` (stereo not drawn), 38.3 µg/mL (≈ 144 µM).
In the case of `CCCCOc1ccc(C(=O)OCC(=O)NC2CCCC2)cc1` it was 5.5 µg/mL (≈ 17.2 µM); in that of `Cc1cccc(OCC2CCCN(Cc3nc(C4CC4)no3)C2)c1` (stereo not drawn), 12.8 µg/mL (≈ 39.1 µM); in that of `CC(=O)Nc1cccc(OCCCNC(=O)c2ccc(C(C)(C)C)cc2)c1`, 23.2 µg/mL (≈ 63 µM).
In the case of `O=C(Nc1ccc(F)c([N+](=O)[O-])c1)C1CCCO1` (stereo not drawn) it was over 38.1 µg/mL.
In turn, `O=C(Nc1cccc(C(F)(F)F)c1)c1scc2c1OCCO2` registered a solubility (kinetic) of under 0.7 µg/mL.
In the case of `O=C(OCC(=O)N1CCCC1)c1ccc(Cl)nc1` it was over 40.3 µg/mL; in that of `Cc1ccccc1-c1nc(-c2ccc(Br)o2)no1`, 1 µg/mL (≈ 3.28 µM); in that of `NC(=O)c1ccccc1OCC(=O)N1CCCc2ccccc21`, over 46.6 µg/mL.
With `CN(CC(=O)Nc1ccc(OC(F)F)cc1)S(=O)(=O)/C=C/c1ccccc1`, the solubility (kinetic) came out at 5.4 µg/mL (≈ 13.6 µM).
In the case of `O=C(COC(=O)/C=C/c1ccc(OC(F)F)cc1)NC1CCCCCC1` it was 4.6 µg/mL (≈ 12.5 µM); in that of `Cc1ccc2nc(SCC(=O)Nc3ccc(C(N)=O)cc3)[nH]c2c1`, 9.9 µg/mL (≈ 29.1 µM).
The compound `O=S(=O)(c1cccc2ccccc12)N1CCCCC1` gave a kinetic solubility of 17.3 µg/mL (≈ 62.8 µM). Against the preceding compound, the solubility kinetic is about 1.7-fold higher.
The compound `COc1ccc(C2C(C(=O)O)c3ccccc3C(=O)N2Cc2ccco2)cc1` (stereo not drawn) yielded a solubility (kinetic) of over 56.6 µg/mL.
In the case of `O=C(O)CC(NC(=O)CCc1ccccc1)c1ccc(Cl)cc1` (stereo not drawn) it was 44.5 µg/mL (≈ 134 µM).
The result for `O=C(COC(=O)c1ccco1)NC12CC3CC(CC(C3)C1)C2` reads 2.2 µg/mL (≈ 7.25 µM).
In the case of `Cn1c(=O)c2c(nc(Oc3cccc(O)c3)n2C)n(C)c1=O` it was over 45.3 µg/mL; in that of `C=CCNC(=O)c1ccccc1SCc1c(C)noc1C`, over 45.4 µg/mL.
With `CC1CCC(C(C)C)C(OCC(O)CN2CCCC(C)C2)C1.Cl` (stereo not drawn), the solubility (kinetic) was over 52.2 µg/mL.
In the case of `COc1ccc(OCC(O)CNS(=O)(=O)c2ccc(C)cc2)cc1` (stereo not drawn) it was over 52.7 µg/mL; in that of `COc1ccc(CCC(=O)NC2CCCc3ccccc32)cc1OC` (stereo not drawn), 47.5 µg/mL (≈ 140 µM).
The result for `O=C(CNC(=O)c1ccccc1)OCN1C(=O)c2ccccc2C1=O` reads over 50.7 µg/mL.
Regarding `c1ccn2cc(-c3ccc4c(c3)OCCO4)nc2c1`, the kinetic solubility was over 37.8 µg/mL.
The result for `Cc1ccc(/C(N)=N/OC(=O)C(C)c2ccc([N+](=O)[O-])cc2)cc1` (stereo not drawn) reads 8.3 µg/mL (≈ 25.4 µM).
Compound `O=C(Nc1ccccc1)c1ccccc1OS(=O)(=O)c1ccccc1` showed a kinetic solubility of 48 µg/mL (≈ 136 µM).
The result for `Cc1onc(-c2c(F)cccc2Cl)c1C(O)c1ccc(F)cc1` (stereo not drawn) reads over 50.4 µg/mL; that for `Cc1cccc(C)c1N(CC(=O)N1CCCC1)S(C)(=O)=O`, 35.2 µg/mL (≈ 113 µM).
`CC(C)CC(=O)Nc1ccc(C(=O)CN2CCC(C)CC2)cc1` registered a kinetic solubility of 39.4 µg/mL (≈ 125 µM).
The result for `O=C(CNC(=O)COc1ccccc1)NCCc1ccccn1` reads over 47 µg/mL.
The compound `Cn1cc(C(=O)OCC(=O)NC2CCCCC2)c2ccccc21` gave a solubility (kinetic) of 4.8 µg/mL (≈ 15.3 µM).
Take `Cc1cccc(NC(=S)N2CCN(C(=O)c3ccco3)CC2)c1`: the kinetic solubility is over 49.4 µg/mL.
In the case of `O=C(CSC(=S)N1CCCCC1)Nc1ncc2c(n1)CCCC2=O` it was 11.3 µg/mL (≈ 31 µM); in that of `CCc1nonc1NC(=O)c1oc2ccc(C)cc2c1C`, under 0.2 µg/mL; in that of `COC(=O)c1ccc(C(=O)OC)c(NC(=O)/C=C/C(=O)O)c1`, over 46.1 µg/mL.
The result for `N#Cc1cccnc1N1CCN(C(=O)c2ccccc2)CC1` reads 43.4 µg/mL (≈ 148 µM); that for `Cc1csc(NC(=O)Cc2c(F)cccc2Cl)n1`, 36.4 µg/mL (≈ 128 µM).
In the case of `COc1cccc(CNS(=O)(=O)c2csc(C(N)=O)c2)c1` it was over 49 µg/mL.
In turn, `CCOC(=O)C1CCCN(CCSc2ccc(C)cc2)C1.Cl` (stereo not drawn) had a kinetic solubility of 41.3 µg/mL.
In the case of `COc1cccc(Oc2nc(-c3ccncc3)nc3ccccc23)c1` it was under 0.2 µg/mL; in that of `O=C(C(Cl)c1ccccc1)N1CCCC1` (stereo not drawn), 33.1 µg/mL (≈ 148 µM).
